# Assays:
# [1] = system: Glyphosate-tolerant corn plants (D40SS48); test: Example 1 synergistic test with glyphosate: shoot dry weight, corn; type: in vivo; conditions: 7 days after application, glyphosate 4.87 g/L vs Control group (p<0.01), FIG. 1A
# Experimental: (§1) One seed was seeded in one pot.
# (§2) 2.1 Shoot dry weight: Seven (7) days after the application of reagents, leaves and stems of each plant were dried at 50° C. overnight, and then the dry weight was measured.
# (§3) 2.2 Statistics: Unpaired Student's t-test was applied to assess numerical data statistical significance. Statistical significance was set at p-value less than 0.05.
# [2] = system: Glyphosate-tolerant soybean plants (S29RY05); test: Example 1 synergistic test with glyphosate: shoot dry weight, soybean; type: in vivo; conditions: 7 days after application, glyphosate 4.87 g/L vs Control group (p<0.01), FIG. 2A
# Experimental: as §1, §2, §3
# [3] = system: Glyphosate-tolerant corn plants (D40SS48); test: Example 2 different concentrations of components with glyphosate: shoot dry weight, corn; type: in vivo; conditions: glyphosate 4.87 g/L vs Control group (p<0.01), FIG. 3A
# Experimental: as §2, §1
# (§4) Methods for analyzing shoot dry weight and statistics are the same as described in Example 1.
# [4] = system: Glyphosate-tolerant soybean plants (S29RY05); test: Example 2 different concentrations of components with glyphosate: shoot dry weight, soybean; type: in vivo; conditions: glyphosate 4.87 g/L vs Control group (p<0.01), FIG. 4A
# Experimental: as §2, §1, §4
# [5] = system: Glyphosate-tolerant corn plants (D40SS48); test: Example 3 analyses of leaves and roots (growth) after glyphosate treatment, corn; type: in vivo; conditions: 7 days after application, glyphosate 4.87 g/L, N = 10
# Experimental: as §1
# (§5) 2.1 Analyses of Leaves: Seven (7) days after the application of reagents, plant height was measured, and leaves were collected. The leaf area of the fourth leaf of each corn plant and the total leaf area of each soybean plant were measured by a leaf analyzer (WinFOLIA™ Regent Instruments Inc., Québec, Canada). Leaves and stems of each plant were dried at 50° C. overnight, and then the dry weight was measured.
# (§6) 2.2 Analyses of Roots: Seven (7) days after the application of reagents, length of plant root was measured by a root analyzer (WinRHIZO™, Regent Instruments Inc., Québec, Canada). In addition, roots of each plant were dried at 50° C. overnight, and then the dry weight was measured.
# [6] = system: Glyphosate-tolerant corn plants (D40SS48); test: Example 3 electrolyte leakage, corn; type: in vivo; conditions: 3 days after application, glyphosate vs Control group, FIG. 6
# Experimental: as §1
# (§7) Six (6) leaf disks (7.5 mm diameter) were cut from the sample leaves and immersed in 10 ml of deionized water at 25° C. for 24 hours. After that, the first electrolytic conductivity (EC1) of the sample solution was analyzed with an electrical conductivity meter (SevenCompact™ 5230 Conductivity Meter, Mettler-Toledo, Columbus, Ohio, USA). The sample leaf disks were then kept in the deionized water at 95° C. for 2 hours. After the temperature of the sample solution decreased to 25° C., the second electrolytic conductivity (EC2) of the sample solution was analyzed with the electrical conductivity meter again. Ten (10) milliliters of deionized water without any sample were used as control. Electrolyte leakage of the sample leaves was analyzed with the following equation.
# (§8) Electrolyte leakage (%)=(Sample EC1−Control EC1)×100/(Sample EC2−Control EC2)
# [7] = system: nitrate reductase (NR) of corn plants; test: Example 3 activity of nitrate reductase, corn; type: in vivo; conditions: 3 days after application, glyphosate vs Control group, FIG. 8
# Experimental: as §1
# (§9) One (1) ml of potassium phosphate buffer (100 mM, pH7.4) containing 7.5 mM cysteine, 1 mM EDTA, and 1.5% casein was added to the sample, mixed with the sample, and then the mixed sample was centrifuged at 4° C., 13,000 relative centrifugal field (rcf) for 30 minutes. […] The sample was centrifuged at room temperature, 3,000 rcf. The supernatant was transferred to a new tube and mixed with 0.5 mL sulphanilamide (5.8 mM) and 0.5 mL N-(1-naphthyl)ethylenediamine (0.8 mM). The mixture was incubated for 30 minutes. […] KNO2 is used as a NO2^− concentration standard.
# [8] = system: glutamine synthetase (GS) of corn plants; test: Example 3 activity of glutamine synthetase, corn; type: in vivo; conditions: 3 days after application, glyphosate vs Control group, FIG. 9
# Experimental: as §1
# (§10) The leaf powder and 1 ml of extraction solution, containing 10 mM Tris-HCl (pH7.6), 1 mM MgCl2, 1 mM EDTA, and 10 mM 2-Mercaptoethanol, were centrifuged at 4° C., 13,000 rcf for 30 minutes. […] The sample was centrifuged at room temperature, 3,000 rcf. Absorbance at an O.D. of 540 nm (A540) of the supernatant was measured.
# [9] = system: glutamate synthase (GOGAT) of corn plants; test: Example 3 activity of glutamate synthase, corn; type: in vivo; conditions: 3 days after application, glyphosate vs Control group, FIG. 10
# Experimental: as §1
# (§11) The leaf powder and 1 ml of extraction solution, containing 10 mM Tris-HCl (pH7.6), 1 mM MgCl2, 1 mM EDTA, and 10 mM 2-Mercaptoethanol, were centrifuged at 4° C., 13,000 rcf for 30 minutes. Zero-point-one-five (0.15) ml of the supernatant was mixed with the reaction solution containing 0.2 mL of 20 mM L-glutamine, 0.25 mL of 2 mM 2-oxoglutarate, 0.05 mL of 10 mM KCl, 1 mL of 25 mM Tris-HCl (pH7.6), and 0.1 mL 3 mM NADH to initiate the reaction. The GOGAT activity is determined by NADH reduction through measuring fluorescence intensity at excitation/emission wavelengths of 340/445 nm. NADH concentration is determined by reference to a NADH standard curve.
# [10] = system: Glyphosate-tolerant corn plants (D40SS48); test: Example 3 content of plant hormones, corn; type: in vivo; conditions: with glyphosate treatment (4.87 g/L), 12 days after application, N = 3
# Experimental: as §1
# (§12) 2.8 Content of Plant Hormones: Twelve (12) days after the application of reagents, 1 g of fresh sample leaf was ground in liquid nitrogen and then mixed with 10 g extraction solution (80% (v/v) methanol, 1% (v/v) acetic acid) by a vortex mixer. The sample was then sonicated for 1 hour and centrifuged at 2,500 rpm for 10 minutes. The supernatant was collected, concentrated, dissolved in 1 ml of 100% methanol, and then analyzed for content of plant hormones with a tandem quadrupole mass spectrometer (Waters® Xevo® TQ MS, Waters Corporation, Milford, Mass., USA) and ACQUITY UPLC System (Waters Corporation, Milford, Mass., USA).
# [11] = system: Glyphosate-tolerant soybean plants (S29RY05); test: Example 3 analyses of leaves and roots (growth) after glyphosate treatment, soybean; type: in vivo; conditions: 7 days after application, glyphosate 4.87 g/L
# Experimental: as §1, §5, §6
# [12] = system: Glyphosate-tolerant soybean plants (S29RY05); test: Example 3 electrolyte leakage, soybean; type: in vivo; conditions: 3 days after application, glyphosate vs Control group, FIG. 13
# Experimental: as §1, §7, §8
# [13] = system: nitrate reductase (NR) of soybean plants; test: Example 3 activity of nitrate reductase, soybean; type: in vivo; conditions: 3 days after application, glyphosate vs Control group, FIG. 15
# Experimental: as §1, §9
# [14] = system: glutamine synthetase (GS) of soybean plants; test: Example 3 activity of glutamine synthetase, soybean; type: in vivo; conditions: 3 days after application, glyphosate vs Control group, FIG. 16
# Experimental: as §1, §10
# [15] = system: glutamate synthase (GOGAT) of soybean plants; test: Example 3 activity of glutamate synthase, soybean; type: in vivo; conditions: 3 days after application, glyphosate vs Control group, FIG. 17
# Experimental: as §1, §11
# [16] = system: Glyphosate-tolerant soybean plants (S29RY05); test: Example 3 content of plant hormones, soybean; type: in vivo; conditions: with glyphosate treatment (4.87 g/L), 12 days after application, N = 3
# Experimental: as §1, §12
# [17] = system: Glyphosate-tolerant corn plants (D40SS48); test: Example 3 content of TBARS, corn; conditions: 3 days after application, glyphosate vs Control group, FIG. 7
# [18] = system: Glyphosate-tolerant soybean plants (S29RY05); test: Example 3 content of TBARS, soybean; conditions: 3 days after application, glyphosate vs Control group, FIG. 14
smiles,measurement,setting,value
"O=C(O)CNCP(=O)(O)O [Glyphosate only, glyphosate]",shoot dry weight,[1],significant decrease in shoot dry weight
same,shoot dry weight,[2],significant decrease in shoot dry weight
same,shoot dry weight,[3],significant decrease in shoot dry weight
same,shoot dry weight,[4],significant decrease in shoot dry weight
same,Plant height,[5],42.70 cm
same,Root dry weight,[5],0.35 g
same,The 4th leaf area,[5],89.45 cm^2
same,Total root length,[5],1405.69 cm
same,shoot dry weight,[5],1.30 g
same,electrolyte leakage,[6],increase in electrolyte leakage
same,activities of nitrate reductase (NR),[7],decrease in activities
same,activities of glutamine synthetase (GS),[8],decrease in activities
same,activities of glutamate synthase (GOGAT),[9],decrease in activities
same,Phytohormone content: ABA,[10],2742 ng/g FW
same,Phytohormone content: Cytokinin (Zeatin+iPAs),[10],0.75 ng/g FW
same,Phytohormone content: GA1,[10],625 ng/g FW
same,Phytohormone content: IAA,[10],45 ng/g FW
same,leaf curling symptoms (phenotype observation of soybean leaves),[11]; FIG. 12,causes leaf curling symptoms
same,necrotic areas (phenotype observation of soybean leaves),[11]; FIG. 12,necrotic areas
same,Root dry weight,[11]; N = 10,0.28 g
same,Shoot fresh weight,[11]; N = 10,2.46 g
same,The unifoliate leaf length,[11]; N = 10,4.54 cm
same,Total leaf area,[11]; N = 10,55.96 cm^2
same,Total root length,[11]; N = 10,2047.40 cm
same,electrolyte leakage,[12],increase in electrolyte leakage
same,activities of nitrate reductase (NR),[13],decrease in activities
same,activities of glutamine synthetase (GS),[14],decrease in activities
same,activities of glutamate synthase (GOGAT),[15],decrease in activities
same,Phytohormone content: ABA,[16],1189 ng/g FW
same,Phytohormone content: Cytokinin (Zeatin+iPAs),[16],0.68 ng/g FW
same,Phytohormone content: GA1,[16],832 ng/g FW
same,Phytohormone content: IAA,[16],28 ng/g FW
same,TBARS level,[17],increase in TBARS level
same,TBARS level,[18],increase in TBARS level
